Literature values, collected in patent US20220062479A1, “Disinfection Bomb” (priority 2020, published 2022).

Assays:
Pseudomonas aeruginosa = conditions: it has been shown
Streptococcus pyogenes = conditions: by way of background
Staphylococcus aureus = conditions: by way of background
E. coli = conditions: it has been shown

Q: What does the source list for `CCO` [ethanol]?
A: contact time that allows the ethanol to kill Pseudomonas aeruginosa (Pseudomonas aeruginosa): 10 s; contact time to kill Streptococcus pyogenes (Streptococcus pyogenes): at least 10 seconds; contact time to kill Staphylococcus aureus (Staphylococcus aureus): at least 10 seconds; contact time that allows the ethanol to kill E. coli (E. coli): 10 s
